What all share (type): functional, cell-based
The subject of one experiment is A549. As to the kind of experiment: Cytotoxicity against Homo sapiens (human) A549 cells assessed as inhibition of cell growth after 3 days by MTT assay. The settings on record: A549, 72 h.
The subject of the next experiment is MOLT-3. Kind of experiment: Cytotoxicity against Homo sapiens (human) MOLT3 cells assessed as inhibition of cell growth after 3 days by crystal violet staining. The settings on record: MOLT-3, 72 h.
Experiment [1] is described as follows: Cytotoxicity against Homo sapiens (human) HuCCa1 cells assessed as inhibition of cell growth after 3 days by crystal violet staining. The settings on record: HuCC-A1, 72 h.
Another experiment has as its system HepG2. Kind of experiment: Cytotoxicity against Homo sapiens (human) HepG2 cells assessed as inhibition of cell growth after 3 days by MTT assay. The settings on record: HepG2, 72 h. A general note: Tetrazolium dyes change colour on reduction, which living cells bring about.

Take `S=C(NCc1cccc(CNC(=S)Nc2ccc(Cl)cc2)c1)Nc1ccc(Cl)cc1`: the IC50 (usually the midpoint of a concentration-inhibition curve) is over 105 µM in the experiment with A549, 1.62 µM in the experiment on MOLT-3, 52.6 µM in experiment [1] and 7.63 µM in the experiment with HepG2.

On to `O=[N+]([O-])c1ccc(NC(=S)NCc2ccccn2)cc1`, for which the IC50 is over 173 µM with A549, 54.1 µM in the experiment on MOLT-3, over 173 µM in experiment [1] and 34.7 µM with HepG2.

For the compound `COc1ccc(CCNC(=O)Nc2ccc(Cl)cc2)cc1OC`, the IC50 was over 149 µM in the experiment on A549, 50.7 µM in the experiment on MOLT-3, over 149 µM in experiment [1] and 52.8 µM in the experiment with HepG2.

For the compound `COc1cccc2c1C(=O)c1c(O)c3c(c(O)c1C2=O)C[C@@](O)(C(=O)CO)C[C@@H]3O[C@H]1C[C@H](N)[C@H](O)[C@H](C)O1` [DOXORUBICIN], the IC50 was determined as 0.7 µM in the experiment on A549, 0.64 µM in experiment [1] and 0.42 µM in the experiment on HepG2.

As for `S=C(NCCc1ccccn1)Nc1ccc(Cl)cc1`, the IC50 with A549 is over 171 µM; in the experiment with MOLT-3, 120 µM; in experiment [1] it was over 171 µM; in the experiment with HepG2, over 171 µM.

For the compound `O=C(NCc1ccccn1)Nc1ccc(Cl)cc1`, the IC50 with A549 is over 191 µM; in the experiment with MOLT-3, 186 µM; in experiment [1], over 191 µM; in the experiment with HepG2 it was over 191 µM.

Consider `O=[N+]([O-])c1ccc(NC(S)=NCCc2ccccc2)cc1`, for which the IC50 with A549 worked out at 80.3 µM; in the experiment on MOLT-3 it was 12.5 µM; in experiment [1], 19.1 µM; in the experiment on HepG2, 25.4 µM.

Take `COc1ccc(CCNC(=S)Nc2ccc([N+](=O)[O-])cc2)cc1OC`: the concentration for half-maximal inhibition (IC50) in the experiment with A549 is 65 µM; with MOLT-3 it was 21.7 µM; in experiment [1] it was over 138 µM; in the experiment with HepG2 it was 42.4 µM.

`S=C(NCCc1ccccc1)Nc1ccc(Cl)cc1`: the IC50 in the experiment on A549 is 75.7 µM; with MOLT-3, 25.1 µM; in experiment [1], 84.2 µM; in the experiment with HepG2, 44.7 µM.

In the case of `O=[N+]([O-])c1ccc(NC(=S)NCCc2ccccn2)cc1`, the IC50 in the experiment on A549 was over 165 µM; with MOLT-3 it was 78.7 µM; in experiment [1] it was over 165 µM; in the experiment on HepG2 it was 152 µM.

With `COc1ccc(CCNC(=S)Nc2ccc(Cl)cc2)cc1OC`, the IC50 with A549 is 129 µM; in the experiment with MOLT-3 it was 38.9 µM; in experiment [1] it was 139 µM; with HepG2, 60.8 µM.

As for `O=[N+]([O-])c1ccc(NC(=S)NCc2cccc(CNC(=S)Nc3ccc([N+](=O)[O-])cc3)c2)cc1`, the IC50 with A549 is 88.6 µM; in the experiment with MOLT-3, 3.36 µM; in experiment [1], 34.2 µM; with HepG2, 7.51 µM.

`S=C(NCc1ccccn1)Nc1ccc(Cl)cc1`: the IC50 in the experiment on A549 was over 180 µM; in the experiment on MOLT-3 it was 119 µM; in experiment [1] it was over 180 µM; in the experiment on HepG2, over 180 µM.

As to `O=C(NCCc1ccccc1)Nc1ccc(Cl)cc1`, the IC50 in the experiment with A549 was over 182 µM; with MOLT-3, over 182 µM; in experiment [1], over 182 µM; in the experiment on HepG2, 37.6 µM.

On to `O=C(NCCc1ccccn1)Nc1ccc(Cl)cc1`, for which the IC50 in the experiment with A549 was over 181 µM; in the experiment with MOLT-3, 66.9 µM; in experiment [1], over 181 µM; in the experiment on HepG2, 22.7 µM.
